Laboratory results from US12018059B2, “Human amylin analog polypeptides and methods of use” (Intarcia Therapeutics, Inc., priority 2018, dated 2024).
Starred links: 1 amine or outer side, 2 acyl side, 3 side chain; linkers in the order of their positions; H or OH if unused. Positions of bridges follow the written chain, without caps; N, C: chain ends. Non-standard residues stand in square brackets, D forms with d. Residues, ends and D or L forms follow the SMILES beside them. Groups on a side chain read outwards from the residue. *: point of attachment. C18 diacid = O=C(O)CCCCCCCCCCCCCCCCC(=O)*; γGlu = O=C(O)[C@H](CCC(=O)[*:2])N[*:1]; Palmitoyl = CCCCCCCCCCCCCCCC(=O)*

Experiment: in vivo
Parameters: species or system Sprague-Dawley rats
Conditions: rat, iv, 0.033 mg/kg
Method in brief: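 Peptide plasma levels measured by UPLC-MS/MS (C18, product-ion monitoring) after protein precipitation or WCX SPE, calibrated in K2EDTA/protease-inhibitor rat plasma. Dosing in non-fasted male Sprague-Dawley rats (n=3): 0.033 mg/kg over 1 h by IV or SC infusion, or 0.3 mg/kg SC bolus; sampling up to 48 h.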

Row | Vd [L/kg] | clearance [mL/min/kg] | half-life [h] | Compound
1 | 0.137 | 0.108 | 16.6 | CC[C@H](C)[C@H](NC(=O)[C@@H]1CCCN1C(=O)CNC(=O)[C@H](Cc1ccccc1)NC(=O)[C@H](CC(N)=O)NC(=O)[C@H](CC(N)=O)NC(=O)[C@H](CO)NC(=O)[C@H](CO)NC(=O)[C@H](CCCCN)NC(=O)[C@H](Cc1c[nH]cn1)NC(=O)[C@@H](CCCCNC(=O)CC[C@H](NC(=O)CC[C@H](NC(=O)CC[C@H](NC(=O)CCCCCCCCCCCCCCCCC(=O)O)C(=O)O)C(=O)O)C(=O)O)NC(=O)[C@H](CCC(=O)O)NC(=O)[C@H](CC(N)=O)NC(=O)[C@H](C)NC(=O)[C@H](CC(C)C)NC(=O)[C@H](CCCNC(=N)N)NC(=O)[C@H](CCC(N)=O)NC(=O)[C@@H](NC(=O)[C@H](C)NC(=O)[C@@H]1CSSC[C@H](NC(=O)[C@@H](N)CO)C(=O)N[C@@H](CC(N)=O)C(=O)N[C@@H]([C@@H](C)O)C(=O)N[C@@H](CO)C(=O)N[C@@H]([C@@H](C)O)C(=O)N1)[C@@H](C)O)C(=O)N[C@@H](CC(C)C)C(=O)N1CCC[C@H]1C(=O)N1CCC[C@H]1C(=O)N[C@H](C(=O)N[C@@H](CCCCN)C(=O)N[C@H](C(=O)NCC(=O)N[C@@H](CO)C(=O)N[C@@H](CCC(=O)O)C(=O)N[C@H](C(=O)N[C@@H](Cc1ccc(O)cc1)C(N)=O)[C@@H](C)O)C(C)C)[C@@H](C)O [Compound A104] (H-SCNTSTCATQRLANE[dK]([γGlu-γGlu-γGlu-C18 diacid])HKSSNNFGPILPPTKVGSETY-NH2; disulfide 2-7)
2 | 0.396 | 6.45 | 1.01 | CCCCCCCCCCCCCCCC(=O)N[C@@H](CCC(=O)NCCCC[C@H](NC(=O)[C@@H]1CSSC[C@H](NC(=O)[C@@H](N)CO)C(=O)N[C@@H](CC(N)=O)C(=O)N[C@@H]([C@@H](C)O)C(=O)N[C@@H](CO)C(=O)N[C@@H]([C@@H](C)O)C(=O)N1)C(=O)N[C@H](C(=O)N[C@@H](CCC(N)=O)C(=O)N[C@@H](CCCNC(=N)N)C(=O)N[C@@H](CC(C)C)C(=O)N[C@@H](C)C(=O)N[C@@H](CC(N)=O)C(=O)N[C@@H](CCC(=O)O)C(=O)N[C@@H](CC(C)C)C(=O)N[C@@H](Cc1c[nH]cn1)C(=O)N[C@@H](CCCCN)C(=O)N[C@@H](CO)C(=O)N[C@@H](CO)C(=O)N[C@@H](CC(N)=O)C(=O)N[C@@H](CC(N)=O)C(=O)N[C@@H](Cc1ccccc1)C(=O)NCC(=O)N1CCC[C@H]1C(=O)N[C@H](C(=O)N[C@@H](CC(C)C)C(=O)N1CCC[C@H]1C(=O)N1CCC[C@H]1C(=O)N[C@H](C(=O)N[C@@H](CCCCN)C(=O)N[C@H](C(=O)NCC(=O)N[C@@H](CO)C(=O)N[C@@H](CCC(=O)O)C(=O)N[C@H](C(=O)N[C@@H](Cc1ccc(O)cc1)C(N)=O)[C@@H](C)O)C(C)C)[C@@H](C)O)[C@@H](C)CC)[C@@H](C)O)C(=O)O [Compound A108] (H-SCNTSTCK([γGlu-Palmitoyl])TQRLANELHKSSNNFGPILPPTKVGSETY-NH2; disulfide 2-7)
